This note sets out measurements from patent US11098073B2, “Triphenylphosphonium-tethered tetracyclines for use in treating cancer” (Oxford University Innovation Limited, priority 2017, dated 2021).

Structures can show the parent of a compound that is named as a salt.

For this assay, the system named is MDA-231 cancer cells. The assay can be described thus: Inhibition of proliferation assay: cell confluence (IncuCyte live cell imaging). In kind it is cell-based. As to conditions: compound tested at 10 μM, images every 3 h over 4-5 d, relative confluence normalised to time zero. The text has this:
Inhibition of Proliferation Assay
The confluence value is a surrogate for cell proliferation and growth. The value is expressed as a percent confluence, which represents the fraction of culture dish-surface that is occupied by cells. As the number of cells in the dish increases over time due to proliferation, so will their coverage of that surface increase. Expansion of the cell population on the cell culture-dish surface and confluence have mostly a linear relationship until the cells on the plate surface begin to reach saturation or maximum density.
Confluence is determined based on image analysis. Image based software can identify objects in the image field base on changes to pixel density in a grey scale image. The software can then assign a mask to those pixels within the object. Objects can be ‘gated’ out based on size and shape. To determine cell confluence, images of cells are first masked as objects. The surface area of the image that is masked is measured and compared to the total surface area of the culture dish surface to obtain a percent confluence.
MDA-231 cancer cells were obtained from ATCC. Cells were cultured in Dulbecco's Modified Eagle Medium (DMEM) supplemented with 10% Fetal Bovine Serum (FBS), 2 mM Glutamax, 1 mM Non Essential Amino Acid (NEAA) solution and 1 mM sodium pyruvate. […] Final DMSO concentrations were […]. Images were acquired with an IncuCyte Live Cell Imaging microscopy (Essen Bioscience) at every 3 h under cell culture conditions with 10 OX objective over 4-5 d. Cell confluence was calculated from one field of view per well using the IncuCyte in-built algorithm. Relative confluence values were obtained by normalising each value to the time zero value in each sample.
For `C[C@H]1c2ccc(CNC(=O)CCCCCCCCC[P+](c3ccccc3)(c3ccccc3)c3ccccc3)c(O)c2C(=O)C2=C(O)[C@]3(O)C(=O)C(C(N)=O)=C(O)[C@@H](N(C)C)[C@@H]3[C@@H](O)[C@@H]21` [Example 5, trifluoroacetate], the “% Confluence” value is on record as 37%.
The value for `C[C@H]1c2ccc(NC(=O)CCCCCCCC[P+](c3ccccc3)(c3ccccc3)c3ccccc3)c(O)c2C(=O)C2=C(O)[C@]3(O)C(=O)C(C(N)=O)=C(O)[C@@H](N(C)C)[C@@H]3[C@@H](O)[C@@H]21.[Cl-]` [Example 20] was 25.2%.
As for `C[C@H]1c2ccc(NC(=O)CCNC(=O)CCCCCCC[P+](c3ccccc3)(c3ccccc3)c3ccccc3)c(O)c2C(=O)C2=C(O)[C@]3(O)C(=O)C(C(N)=O)=C(O)[C@@H](N(C)C)[C@@H]3[C@@H](O)[C@@H]21` [Example 10, {7-[(2-{[(5R,5aR,6S,6aR,7S,10aS)-9-carbamoyl-7-(dimethylamino)-1,6,8,10a,11-pentahydroxy-5-methyl-10,12-dioxo-5,5a,6,6a,7,10,10a,12-octahydrotetracen-2-yl]carbamoyl}ethyl)carbamoyl]heptyl}triphenylphosphonium trifluoroacetate], the figure is 92.2%.
With `C[C@H]1c2ccc(NC(=O)CCNC(=O)CCCCCCCCC[P+](c3ccccc3)(c3ccccc3)c3ccccc3)c(O)c2C(=O)C2=C(O)[C@]3(O)C(=O)C(C(N)=O)=C(O)[C@@H](N(C)C)[C@@H]3[C@@H](O)[C@@H]21` [Example 11, {9-[(2-{[(5R,5aR,6S,6aR,7S,10aS)-9-carbamoyl-7-(dimethylamino)-1,6,8,10a,11-pentahydroxy-5-methyl-10,12-dioxo-5,5a,6,6a,7,10,10a,12-octahydrotetracen-2-yl]carbamoyl}ethyl)carbamoyl]nonyl}triphenylphosphonium trifluoroacetate], the “% Confluence” value was 45%.
Turning to `C[C@H]1c2c(NC(=O)CCCCCCCCC[P+](c3ccccc3)(c3ccccc3)c3ccccc3)ccc(O)c2C(=O)C2=C(O)[C@]3(O)C(=O)C(C(N)=O)=C(O)[C@@H](N(C)C)[C@@H]3[C@@H](O)[C@@H]21` [Example 14, (9-{[(6aS,10S,10aR,11 S,11 aR,12R)-8-carbamoyl-10-(dimethylamino)-4,6,6a,9,11-pentahydroxy-12-methyl-5,7-dioxo-5,6a,7,10,10a,11,11a,12-octahydrotetracen-1-yl]carbamoyl}nonyl)triphenylphosphonium trifluoroacetate], the “% Confluence” value was 87.9%.
The value for `C[C@H]1c2ccc(NC(=O)CCCCCCCCCC[P+](c3ccccc3)(c3ccccc3)c3ccccc3)c(O)c2C(=O)C2=C(O)[C@]3(O)C(=O)C(C(N)=O)=C(O)[C@@H](N(C)C)[C@@H]3[C@@H](O)[C@@H]21` [Example 6, (10-{[(5R,5aR,6S,6aR,7S,10aS)-9-carbamoyl-7-(dimethylamino)-1,6,8,10a,11-pentahydroxy-5-methyl-10,12-dioxo-5,5a,6,6a,7,10,10a,12-octahydrotetracen-2-yl]carbamoyl}decyl)triphenylphosphonium trifluoroacetate] was 36.8%.
As for `C[C@H]1c2ccc(NC(=O)CCNC(=O)CCCC[P+](c3ccccc3)(c3ccccc3)c3ccccc3)c(O)c2C(=O)C2=C(O)[C@]3(O)C(=O)C(C(N)=O)=C(O)[C@@H](N(C)C)[C@@H]3[C@@H](O)[C@@H]21` [Example 12, {4-[(2-{[(5R,5aR,6S,6aR,7S,10aS)-9-carbamoyl-7-(dimethylamino)-1,6,8,10a,11-pentahydroxy-5-methyl-10,12-dioxo-5,5a,6,6a,7,10,10a,12-octahydrotetracen-2-yl]carbamoyl}ethyl)carbamoyl]butyl}triphenylphosphonium trifluoroacetate], the figure is 91.9%; as for `C[C@H]1c2c(NC(=O)CCCCCCC[P+](c3ccccc3)(c3ccccc3)c3ccccc3)ccc(O)c2C(=O)C2=C(O)[C@]3(O)C(=O)C(C(N)=O)=C(O)[C@@H](N(C)C)[C@@H]3[C@@H](O)[C@@H]21` [Example 4, (7-{[(6aS,10S,10aR,11S,11aR,12R)-8-carbamoyl-10-(dimethylamino)-4,6,6a,9,11-pentahydroxy-12-methyl-5,7-dioxo-5,6a,7,10,10a,11,11a,12-octahydrotetracen-1-yl]carbamoyl}heptyl)triphenylphosphonium trifluoroacetate], 124.3%; as for `C[C@H]1c2c(NC(=O)CCNC(=O)CCCCCCC[P+](c3ccccc3)(c3ccccc3)c3ccccc3)ccc(O)c2C(=O)C2=C(O)[C@]3(O)C(=O)C(C(N)=O)=C(O)[C@@H](N(C)C)[C@@H]3[C@@H](O)[C@@H]21` [Example 15, {7-[(2-{[(6aS,10S,10aR,11S,11aR,12R)-8-carbamoyl-10-(dimethylamino)-4,6,6a,9,11-pentahydroxy-12-methyl-5,7-dioxo-5,6a,7,10,10a,11,11a,12-octahydrotetracen-1-yl]carbamoyl}ethyl)carbamoyl}heptyl}triphenylphosphonium trifluoroacetate], 112.8%.
The value for `C[C@H]1c2ccc(CNC(=O)CCCCCCC[P+](c3ccccc3)(c3ccccc3)c3ccccc3)c(O)c2C(=O)C2=C(O)[C@]3(O)C(=O)C(C(N)=O)=C(O)[C@@H](N(C)C)[C@@H]3[C@@H](O)[C@@H]21` [Example 17, trifluoroacetate] was 79.4%; that for `C[C@H]1c2ccc(NC(=O)CCCCCC[P+](c3ccccc3)(c3ccccc3)c3ccccc3)c(O)c2C(=O)C2=C(O)[C@]3(O)C(=O)C(C(N)=O)=C(O)[C@@H](N(C)C)[C@@H]3[C@@H](O)[C@@H]21.[Cl-]` [Example 19] was 22.4%.
`C[C@H]1c2ccc(NC(=O)CCCCCCC[P+](c3ccccc3)(c3ccccc3)c3ccccc3)c(O)c2C(=O)C2=C(O)[C@]3(O)C(=O)C(C(N)=O)=C(O)[C@@H](N(C)C)[C@@H]3[C@@H](O)[C@@H]21` [Example 2, (7-{[(5R,5aR,6S,6aR,7S,10aS)-9-carbamoyl-7-(dimethylamino)-1,6,8,10a,11-pentahydroxy-5-methyl-10,12-dioxo-5,5a,6,6a,7,10,10a,12-octahydrotetracen-2-yl]carbamoyl}heptyl)triphenylphosphonium formate]: the “% Confluence” value is on record as 81.2%.
The value for `C[C@H]1c2c(NC(=O)CCCCCCCCCCC[P+](c3ccccc3)(c3ccccc3)c3ccccc3)ccc(O)c2C(=O)C2=C(O)[C@]3(O)C(=O)C(C(N)=O)=C(O)[C@@H](N(C)C)[C@@H]3[C@@H](O)[C@@H]21` [Example 13, (11-{[(6aS,10S,10aR,11 S,11 aR,12R)-8-carbamoyl-10-(dimethylamino)-4,6,6a,9,11-pentahydroxy-12-methyl-5,7-dioxo-5,6a,7,10,10a,11,11a,12-octahydrotetracen-1-yl]carbamoyl}undecyl)triphenylphosphonium trifluoroacetate] was 53.7%.
On to `C[C@H]1c2ccc(NC(=O)CCCCCCCCCCC[P+](c3ccccc3)(c3ccccc3)c3ccccc3)c(O)c2C(=O)C2=C(O)[C@]3(O)C(=O)C(C(N)=O)=C(O)[C@@H](N(C)C)[C@@H]3[C@@H](O)[C@@H]21` [Example 1, (11-{[(5R,5aR,6S,6aR,7S,10aS)-9-carbamoyl-7-(dimethylamino)-1,6,8,10a,11-pentahydroxy-5-methyl-10,12-dioxo-5,5a,6,6a,7,10,10a,12-octahydrotetracen-2-yl]carbamoyl}undecyl)triphenylphosphonium formate], for which the “% Confluence” value was determined as 27.1%.
Turning to `C[C@H]1c2ccc(NC(=O)CCCCC[P+](c3ccccc3)(c3ccccc3)c3ccccc3)c(O)c2C(=O)C2=C(O)[C@]3(O)C(=O)C(C(N)=O)=C(O)[C@@H](N(C)C)[C@@H]3[C@@H](O)[C@@H]21.[Cl-]` [Example 18], the “% Confluence” value is given as 59.1%.
As for `C[C@H]1c2ccc(CNC(=O)CCCCC[P+](c3ccccc3)(c3ccccc3)c3ccccc3)c(O)c2C(=O)C2=C(O)[C@]3(O)C(=O)C(C(N)=O)=C(O)[C@@H](N(C)C)[C@@H]3[C@@H](O)[C@@H]21` [Example 16, trifluoroacetate], the figure is 116.3%.
As for `C[C@H]1c2ccc(NC(=O)CCCCCCCCC[P+](c3ccccc3)(c3ccccc3)c3ccccc3)c(O)c2C(=O)C2=C(O)[C@]3(O)C(=O)C(C(N)=O)=C(O)[C@@H](N(C)C)[C@@H]3[C@@H](O)[C@@H]21` [Example 7, (9-{[(5R,5aR,6S,6aR,7S,10aS)-9-carbamoyl-7-(dimethylamino)-1,6,8,10a,11-pentahydroxy-5-methyl-10,12-dioxo-5,5a,6,6a,7,10,10a,12-octahydrotetracen-2-yl]carbamoyl}nonyl)triphenylphosphonium trifluoroacetate], the figure is 38.7%; as for `C[C@H]1c2ccc(NC(=O)CNC(=O)CCC[P+](c3ccccc3)(c3ccccc3)c3ccccc3)c(O)c2C(=O)C2=C(O)[C@]3(O)C(=O)C(C(N)=O)=C(O)[C@@H](N(C)C)[C@@H]3[C@@H](O)[C@@H]21` [Example 9, {3-[({[(5R,5aR,6S,6aR,7S,10aS)-9-carbamoyl-7-(dimethylamino)-1,6,8,10a,11-pentahydroxy-5-methyl-10,12-dioxo-5,5a,6,6a,7,10,10a,12-octahydrotetracen-2-yl]carbamoyl}methyl)carbamoyl]propyl}triphenylphosphonium trifluoroacetate], 83%.
